IC50 data for 22 molecules are collected here from US10265307B2, “Thiazolecarboxamides and pyridinecarboxamide compounds useful as Pim kinase inhibitors” (Incyte Corporation, priority 2013, dated 2019).

Molecules are shown by their SMILES. Where only a bound is given, the exact number is not on record here.

What all share (format): biochemical
Experiment [1] has as its target Pim-1 (Homo sapiens (Human), UniProt P11309). The experiment in a line: Pim-1 kinase assay. The settings on record: 1 mM ATP; read-out: Pim1 IC50. Here is the method:
Supplementation of the STOP buffer with beads and stopping the reactions were done under reduced light. Prior to the stopping reactions STOP buffer with beads was pre-incubated for 1 h in the dark at room temperature. After stopping the reactions, plates were incubated for 1 h in the dark at room temperature before reading on a PHERAstar FS plate reader (BMG Labtech) under reduced light.

The target of experiment [2] is Pim-2 (Homo sapiens (Human), UniProt Q9P1W9). The experiment in a line: Pim-2 kinase assay. Conditions: 1 mM ATP; read-out: Pim2 IC50. Here is the method: Pim-2 kinase assay-20 μL reactions were run in white 384 well polystyrene plates dotted with 0.8 μL compound/DMSO in the assay buffer (50 mM Tris, pH 7.5, 0.01% Tween-20, 5 mM MgCl2, 0.01% BSA, 5 mM DTT), containing 0.05 μM Fluorescein-labeled CREBtide peptide substrate (Invitrogen PV3508), 1 mM ATP, and 1 nM enzyme (Invitrogen PV3649) for 2 h at 25° C. Reactions were stopped by addition of 10 μL TR-FRET Dilution Buffer (Invitrogen PV3574) with 30 mM EDTA and 1.5 nM LanthaScreen Tb-CREB pSer133 antibody (Invitrogen PV3566). After 30 min. incubation at room temperature, plates were read on a PHERAstar FS plate reader (BMG Labtech).
Although the above in vitro assays are conducted at 1 mM ATP compounds can also be evaluated for potency and in vitro activity against PIM targets utilizing Km conditions, where the concentration of ATP is set to the Km value and the assay is more sensitive to PIM inhibition activity.

Experiment [3] concerns the target Pim-3 (Homo sapiens (Human), UniProt Q86V86). In words: Pim-3 kinase assay. The settings on record: 1 mM ATP; read-out: Pim3 IC50. Here is the method:
Pim-1 and Pim-3 kinase assays-20 μL reactions were run in white 384 well polystyrene plates dotted with 0.8 μL compound/DMSO in the assay buffer (50 mM Tris, pH 7.5, 0.01% Tween-20, 5 mM MgCl2, 0.01% BSA, 5 mM DTT), containing 0.05 μM Biotin-labeled BAD peptide substrate (AnaSpec 62269), 1 mM ATP, and […] (Pim-1, Invitrogen PV3503) or […] (Pim-3, Millipore 14-738) enzyme for 1 h at 25° C. Reactions were stopped by addition of 10 μL STOP Buffer (150 mM Tris, pH=7.5, 150 mM NaCl, 75 mM EDTA, 0.01% Tween-20, 0.3% BSA) supplemented with Phospho-Bad (Ser112) Antibody (Cell Signaling 9291) diluted 666-fold, and Streptavidin donor beads (PerkinElmer 6760002) along with Protein-A acceptor beads (PerkinElmer 6760137) at 15 μg/mL each. Supplementation of the STOP buffer with beads and stopping the reactions were done under reduced light. Prior to the stopping reactions STOP buffer with beads was pre-incubated for 1 h in the dark at room temperature. After stopping the reactions, plates were incubated for 1 h in the dark at room temperature before reading on a PHERAstar FS plate reader (BMG Labtech) under reduced light.

Chain of Pim-2 (Q9P1W9 whole entry): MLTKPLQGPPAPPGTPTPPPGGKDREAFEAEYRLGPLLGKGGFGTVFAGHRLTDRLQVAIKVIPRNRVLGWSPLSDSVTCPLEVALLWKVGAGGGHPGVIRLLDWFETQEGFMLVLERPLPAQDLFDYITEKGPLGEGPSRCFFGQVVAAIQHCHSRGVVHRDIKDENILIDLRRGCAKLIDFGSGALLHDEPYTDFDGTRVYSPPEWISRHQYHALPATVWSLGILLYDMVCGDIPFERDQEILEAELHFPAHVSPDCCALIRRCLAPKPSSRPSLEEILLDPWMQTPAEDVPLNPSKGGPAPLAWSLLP
Chain of Pim-1 (P11309 whole entry): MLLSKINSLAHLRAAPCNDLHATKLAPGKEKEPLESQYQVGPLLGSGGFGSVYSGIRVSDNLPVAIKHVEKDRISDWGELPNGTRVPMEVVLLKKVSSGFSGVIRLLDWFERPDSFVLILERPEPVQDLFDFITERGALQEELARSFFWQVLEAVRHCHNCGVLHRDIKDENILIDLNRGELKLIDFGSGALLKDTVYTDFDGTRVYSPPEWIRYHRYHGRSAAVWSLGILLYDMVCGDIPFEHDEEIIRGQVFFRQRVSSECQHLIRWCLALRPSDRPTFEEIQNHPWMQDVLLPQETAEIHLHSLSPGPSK

For the molecule `Nc1sc(-c2c(F)cccc2F)nc1C(=O)Nc1cnc2c(c1N1CCC[C@H](N)C1)CCC2=O` [Example 20, 5-Amino-N-{4-[(3S)-3-aminopiperidin-1-yl]-7-oxo-6,7-dihydro-5H-cyclopenta[b]pyridin-3-yl}-2-(2,6-difluorophenyl)-1,3-thiazole-4-carboxamide], the IC50 in experiment [1], in experiment [2] and in experiment [3] was at most 100 nM each time.
`C[C@@H]1C[C@H](N)CN(c2c(NC(=O)c3ccc(F)c(-c4c(F)cc([S+](C)[O-])cc4F)n3)cnc3c2CCC3O)C1` (single isomer, unassigned) [60 (Diastereoisomer 1)]: the IC50 in experiment [1] is at most 100 nM; in experiment [2], 100 to 1000 nM; in experiment [3] it was at most 100 nM.
Regarding `COc1ccc(F)c(-c2nc(C(=O)Nc3cnc4c(c3N3C[C@H](C)C[C@H](N)C3)CCC4O)ccc2F)c1F` (single isomer, unassigned) [56 (Diastereoisomer 1)], the IC50 in experiment [1], in experiment [2] and in experiment [3] was at most 100 nM throughout.
For `Nc1sc(-c2c(F)cccc2F)nc1C(=O)Nc1cnc2ccsc2c1N1CCC[C@H](N)C1` [Example 5, 5-Amino-N-{7-[(3S)-3-aminopiperidin-1-yl]thieno[3,2-b]pyridin-6-yl}-2-(2,6-difluorophenyl)-1,3-thiazole-4-carboxamide], the IC50 in experiment [1], in experiment [2] and in experiment [3] was at most 100 nM in each case.
Take `CC(C)(O)c1cc(F)c(-c2nc(C(=O)Nc3cnc4c(c3N3C[C@@H](N)C[C@@H](C(F)(F)F)C3)CCC4O)ccc2F)c(F)c1` (single isomer, unassigned) [72 (Diastereoisomer 2)]: the IC50 in experiment [1], in experiment [2] and in experiment [3] was at most 100 nM throughout.
As to `C[C@H]1CN(c2c(NC(=O)c3ccc(F)c(-c4c(F)cc(OC5CCCOC5)cc4F)n3)cnc3c2CCO3)C[C@@H](N)[C@@H]1O` (stereo partly drawn) [Example 69, N-{4-[(3R,4R,5S)-3-amino-4-hydroxy-5-methylpiperidin-1-yl]-2,3-dihydrofuro[2,3-b]pyridin-5-yl}-6-[2,6-difluoro-4-(tetrahydro-2H-pyran-3-yloxy)phenyl]-5-fluoropyridine-2-carboxamide], the IC50 in experiment [1], in experiment [2] and in experiment [3] was at most 100 nM throughout.
`Nc1sc(-c2c(F)cccc2F)nc1C(=O)Nc1cnc2c(c1N1CC[C@@H](O)[C@H](N)C1)CCC2` (single isomer, unassigned) [Example 25, 5-Amino-N-{4-[3,4-trans-3-amino-4-hydroxypiperidin-1-yl]-6,7-dihydro-5H-cyclopenta[b]pyridin-3-yl}-2-(2,6-difluorophenyl)-1,3-thiazole-4-carboxamide]: the IC50 in experiment [1], in experiment [2] and in experiment [3] was at most 100 nM throughout.
For the molecule `C[C@H]1CN(c2c(NC(=O)c3ccc(F)c(-c4c(F)cc(C(C)(C)O)cc4F)n3)cnc3c2CCO3)C[C@@H](N)[C@@H]1O` [Example 65, N-{4-[(3R,4R,5S)-3-Amino-4-hydroxy-5-methylpiperidin-1-yl]-2,3-dihydrofuro[2,3-b]pyridin-5-yl}-6-[2,6-difluoro-4-(1-hydroxy-1-methylethyl)phenyl]-5-fluoropyridine-2-carboxamide], the IC50 in experiment [1], in experiment [2] and in experiment [3] was at most 100 nM each time.
With `C[C@H]1CN(c2c(NC(=O)c3nc(-c4c(F)cccc4F)sc3N)cnc3c2CCO3)C[C@@H](N)[C@]1(C)O` [Example 76, 5-Amino-N-{4-[(3R,4R,5S)-3-amino-4-hydroxy-4,5-dimethylpiperidin-1-yl]-2,3-dihydrofuro[2,3-b]pyridin-5-yl}-2-(2,6-difluorophenyl)-1,3-thiazole-4-carboxamide], the IC50 in experiment [1], in experiment [2] and in experiment [3] was at most 100 nM throughout.
For the molecule `COc1ccc(F)c(-c2nc(C(=O)Nc3cnc4c(c3N3C[C@H](C)C[C@H](N)C3)CCC4O)ccc2F)c1F` (single isomer, unassigned) [56 (Diastereoisomer 2)], the concentration for half-maximal inhibition (IC50) in experiment [1], in experiment [2] and in experiment [3] was at most 100 nM throughout.
As to `Nc1cc(F)c(-c2c(F)cccc2F)nc1C(=O)Nc1cnc2c(c1N1CCC[C@H](N)C1)CCCN2` [Example 32, 3-Amino-N-{4-[(3S)-3-aminopiperidin-1-yl]-5,6,7,8-tetrahydro-1,8-naphthyridin-3-yl}-6-(2,6-difluorophenyl)-5-fluoropyridine-2-carboxamide], the IC50 in experiment [1], in experiment [2] and in experiment [3] was at most 100 nM each time.
Take `CS(=O)(=O)c1cc(F)c(-c2nc(C(=O)Nc3cnc4c(c3N3CCC[C@H](N)C3)CCC4O)ccc2F)c(F)c1` (single isomer, unassigned) [61 (Diastereoisomer 1)]: the IC50 is at most 100 nM in experiment [1], over 2000 nM in experiment [2] and over 40 nM in experiment [3].
For `C[C@@H]1C[C@H](N)CN(c2c(NC(=O)c3nc(-c4c(F)cccc4F)c(F)cc3N)cnc3c2CCC3O)C1` (single isomer, unassigned) [46 (Diastereoisomer 1)], the IC50 in experiment [1], in experiment [2] and in experiment [3] was at most 100 nM in each case.
For the molecule `CCOc1cc(F)c(-c2nc(C(=O)Nc3cnc4c(c3N3C[C@@H](N)[C@H](O)[C@@H](C)C3)CCC4O)ccc2F)c(F)c1` (single isomer, unassigned) [51 (Diastereoisomer 1)], the IC50 in experiment [1], in experiment [2] and in experiment [3] was at most 100 nM in each case.
For the molecule `Nc1sc(-c2c(F)cccc2F)nc1C(=O)Nc1cnc2c(c1N1C[C@@H](N)C[C@@H](C(F)(F)F)C1)CCC2O` (single isomer, unassigned) [44 (Diastereoisomer 2)], the IC50 in experiment [1], in experiment [2] and in experiment [3] was at most 100 nM throughout.
As for `Nc1cc(F)c(-c2c(F)cccc2F)nc1C(=O)Nc1cnc2c(c1N1CCC[C@H](N)C1)CCO2` [Example 12, 3-Amino-N-{4-[(3S)-3-aminopiperidin-1-yl]-2,3-dihydrofuro[2,3-b]pyridin-5-yl}-6-(2,6-difluorophenyl)-5-fluoropyridine-2-carboxamide], the IC50 in experiment [1], in experiment [2] and in experiment [3] was at most 100 nM in each case.
In the case of `N[C@@H]1CN(c2c(NC(=O)c3ccc(F)c(-c4c(F)cccc4F)n3)cnc3c2CCC3O)C[C@H](C2CC2)[C@H]1O` (single isomer, unassigned) [68 (Diastereoisomer 2)], the IC50 in experiment [1], in experiment [2] and in experiment [3] was at most 100 nM throughout.
Regarding `C[C@@H]1C[C@H](N)CN(c2c(NC(=O)c3ccc(F)c(-c4c(F)cccc4F)n3)cnc3c2CCC3O)C1` (single isomer, unassigned) [45 (Diastereoisomer 2)], the IC50 in experiment [1], in experiment [2] and in experiment [3] was at most 100 nM in each case.
Regarding `N[C@H]1CCCN(c2c(NC(=O)c3csc(-c4c(F)cccc4F)n3)cnc3ccccc23)C1` [Example 2, N-{4-[(3S)-3-Aminopiperidin-1-yl]quinolin-3-yl}-2-(2,6-difluorophenyl)-1,3-thiazole-4-carboxamide], the IC50 in experiment [1] is over 40 nM; in experiment [2], over 2000 nM; in experiment [3], over 40 nM.
Consider `C[C@H]1CN(c2c(NC(=O)c3ccc(F)c(-c4c(F)cccc4F)n3)cnc3c2CCC3O)C[C@@H](N)[C@@H]1O` (single isomer, unassigned) [37 (Diastereoisomer 2)], for which the IC50 in experiment [1], in experiment [2] and in experiment [3] was at most 100 nM in each case.
As to `C[C@H]1CN(c2c(NC(=O)c3ccc(F)c(-c4c(F)cccc4F)n3)cnc3c2CCC3O)C[C@@H](N)[C@@H]1O` (single isomer, unassigned) [37 (Diastereoisomer 1)], the IC50 in experiment [1], in experiment [2] and in experiment [3] was at most 100 nM in each case.
Regarding `N[C@H]1CCCN(c2c(NC(=O)c3csc(-c4c(F)cccc4F)n3)cnc3c2CCC3O)C1` (single isomer, unassigned) [16 (Diastereoisomer 1)], the figures for the IC50 in experiment [1], in experiment [2] and in experiment [3] were at most 100 nM, over 2000 nM and at most 100 nM, respectively.

The IC50 is the concentration that gives 50% inhibition.
